Counter-ions that a name gives are not always drawn. Like-named read-outs stand apart in the source and are kept apart here.

Data set [1] has as its system chloroquine sensitive NF54 strain of P. falciparum. The experiment in a line: In vitro antiplasmodial activity (SYBR I), NF54 strain. It counts as cell-based, Plasmodium falciparum. The method, then: (§1) Measuring In Vitro Antiplasmodial Activity
(§2) The test samples were tested in duplicate on two separate occasions against chloroquine sensitive NF54 (MRA-1000, MR4, ATCC, Manassas, Va.) and chloroquine-resistant K1 strains of P. falciparum. A modified method of Trager and Jensen was employed to maintain continuous in vitro cultures of asexual blood stages of P. falciparum (Trageret al., 1976, Science, 193, 673-675). Quantitative assessment of antiplasmodial activity in vitro was determined using the SYBR I method as described earlier (Johnson et al., 2007, Antimicrob. Agents Chemother., 51, 1926-1933).
(§3) The percent inhibition with respect to the drug-free control was plotted against the logarithm of drug concentration. The growth inhibition curves were fitted by nonlinear regression using the sigmoidal dose-response (variable slope) formula to yield the concentration-response curves. […] Chloroquine diphosphate (CQ) (Sigma), artesunate (Sigma), and pyrimethamine were used as reference drugs in all experiments.

The test system of data set [2] is chloroquine-resistant K1 strain of P. falciparum. The experiment in a line: In vitro antiplasmodial activity (SYBR I), K1 strain. The data set is classed as cell-based, Plasmodium falciparum. The method, then: as §1, §2, §3
The subject of data set [3] is P. falciparum field isolates. Nature of the data set: Ex vivo drug susceptibility (schizont maturation) of P. falciparum field isolates. The data set is classed as cell-based. The note with it: Plasmodium falciparum, read-out: P. falciparum IC50. The method, then: (§4) Further, compounds of the invention (Examples 2 and 13) were also tested against field isolates of falciparum and vivax malaria, along with three control antimalarials as described in the protocol below.
(§5) Ex Vivo Activity of Examples 2 and 13 Against Drug Resistant P. falciparum and P. Vivax Field Isolates
(§6) Standard antimalarial drugs chloroquine (CQ), amodiaquine (AQ), piperaquine (PIP), mefloquine (MFQ), and artesunate (AS) and compounds of the invention were prepared as 1 mg/mL stock solutions in H2O or dimethyl sulfoxide (DMSO) according to the manufacturers' instructions. Drug plates were pre-dosed by diluting the compounds in 50% Methanol followed by lyophilisation and stored at 4° C.
(§7) Plasmodium isolates were collected from patients attending malaria clinics in Timika (Papua, Indonesia), a region endemic for multi-drug-resistant strains of P. vivax and P. falciparum. Patients with symptomatic malaria presenting to an outpatient facility were recruited into the study if singly infected with P. falciparum or P. vivax, with a parasitaemia of between 2,000 μl-1 and 80,000 μl-1, and the majority (>80%) of parasites at ring stage of development. Venous blood (5 mL) was collected by venipuncture and after removal of host white blood cells by using cellulose (Sigma-Aldrich, Australia) filtration, packed infected red blood cells (iRBCs) were used for the ex vivo drug susceptibility assay.
(§8) Drug susceptibility of P. vivax and P. falciparum isolates was measured using a protocol modified from the WHO microtest as described previously (Marfurt et al., 2011, Antimicrob Agents Chemother., 55(9):4461). Two hundred μL of a 2% haematocrit Blood Media Mixture (BMM), consisting of RPMI 1640 medium plus 10% AB+ human serum (P. falciparum) or McCoy's 5 A medium plus 20% AB+ human serum (P. vivax), was added to each well of pre-dosed drug plates containing 11 serial concentrations (2-fold dilutions) of the antimalarials (maximum concentration shown in brackets) CQ (2,992 nM), AQ (158 nM), PIP (1,029 nM), MFQ (338 nM), AS (49 nM), and a compound of the invention (2,146 nM). A candle jar was used to mature the parasites at 37.0° C. for 35-56 hours.
(§9) Thick blood films made from each well were stained with 5% Giemsa solution for 30 minutes and examined microscopically. The number of schizonts per 200 asexual stage parasites was determined for each drug concentration and normalised to the control well. The dose-response data were analysed using nonlinear regression analysis (WinNonLn 4.1, Pharsight Corporation) and the IC50 value derived using an inhibitory sigmoid Emax model. […] Drug plate quality was assured by running schizont maturation assays (two independent experiments) with the chloroquine-resistant strain K1 and the chloroquine-sensitive strain FC27.
(§10) For microscopy slide reading QC, two randomly selected drugs per isolate were read by a second microscopist. […] If necessary, discrepant results were resolved by a third reading by an expert microscopist.

The next data set deals with P. vivax field isolates. Nature of the data set: Ex vivo drug susceptibility (schizont maturation) of P. vivax field isolates. The note with it: Plasmodium vivax, read-out: P. vivax IC50. It counts as cell-based. As for the experimental part:
as §4, §5, §6, §7, §8, §9, §10

Data set [4] can be described thus: Identification of metabolites of Example 13, mouse liver microsomes or hepatocytes. The data set is classed as in vitro ADME. The note with it: metabolite of Example 13. The method, then: (§11) Identification of In Vivo Metabolites
(§12) Metabolites of Example 13 were identified both in vitro and in vivo using the following models: • In vitro: The compound of Example 13 was incubated with human (HLM) or rat (RLM) liver microsomes (1 mg/ml protein concentration in 100 mM phosphate buffer, pH 7.4) at a final concentration of 10 μM in the presence of 2 mM NADPH. The reactive intermediates were trapped by including 2 mM glutathione (GSH) or N-acetyl cysteine (NAC) in the reaction mix. • In vivo in bile duct cannulated rats: Example 13 was administered intravenously (IV) as a bolus through the jugular vein at a dose of 2 mg/kg or 4 mg/kg of body weight for control (n=3) or BDC rats (n=2), respectively. Blood samples were collected at 0.083, 0.25, 0.5, 1, 2, 4, 6, 8 and 24 h through the carotid artery, bile samples were collected at 0-2 h, 2-4 h, 4-6 h, 6-8 h and 8-24 h intervals and urine samples were collected at 0-8 h and 8-24 h intervals. The bile and urine samples were analyzed for the presence of parent and metabolites and blood samples were analyzed for the presence of parent.

The nature of data set [5]: Identification of metabolites of Example 13, rat liver microsomes or hepatocytes. The settings on record: metabolite of Example 13. It counts as in vitro ADME. As for the experimental part:
as §11, §12

Data set [6] is described as follows: Identification of metabolites of Example 13, human liver microsomes or hepatocytes. It counts as in vitro ADME. The settings on record: metabolite of Example 13. As for the experimental part: as §11, §12
[7] abbreviates: Plasmodium falciparum, NF54, read-out: Pf IC50—NF54.
The mark [8] stands for this setting: Plasmodium falciparum, K1, read-out: Pf IC50—K1.
[9] abbreviates: Plasmodium falciparum, NF54 strain, chloroquine sensitive, read-out: Pf IC50—NF54.
The mark [10] stands for this setting: Plasmodium falciparum, K1 strain, chloroquine-resistant, read-out: Pf IC50—K1.

Broadly, the IC50 is the concentration at which inhibition is half-maximal. As for `Cc1nc(Nc2ncc(N3CCN[C@H](C)C3)c(Nc3cc(C)n(C)n3)n2)cc(C2CCC2)c1F` [Example 9, (R)—N2-(4-cyclobutyl-5-fluoro-6-methylpyridin-2-yl)-N4-(1,5-dimethyl-1H-pyrazol-3-yl)-5-(3-methylpiperazin-1-yl)pyrimidine-2,4-diamine dihydrochloride], the 50% inhibitory concentration (IC50) in data set [1] (setting [7]) was found to be 25 nM; in data set [2] (setting [8]), 48 nM.
For `C[C@H]1[C@H](OC(=O)CCC(=O)O)O[C@@H]2O[C@@]3(C)CC[C@H]4[C@H](C)CC[C@@H]1[C@@]24OO3` [Artesunate, artesunate], the IC50 in data set [3] came out at 15.1 nM; in the data set on P. vivax field isolates it was 4.79 nM.
Consider `Cc1nc(Nc2ncc(N3CCN[C@H](C)C3)c(Nc3cn(C)nn3)n2)cc(C2CC2)c1F` [Example 4, (R)—N2-(4-cyclopropyl-5-fluoro-6-methylpyridin-2-yl)-N4-(1-methyl-1H-1,2,3-triazol-4-yl)-5-(3-methylpiperazin-1-yl)pyrimidine-2,4-diamine dihydrochloride], for which the values for the 50% inhibitory concentration (IC50) in data set [1] (setting [7]) and in data set [2] (setting [8]) were 33 nM and 51 nM, respectively.
Regarding `Cc1nc(Nc2ncc(N3CCN(C)[C@H](C)C3)c(Nc3cnn(C)n3)n2)cc(C2CC2)c1F` [Example 15, (R)—N2-(4-cyclopropyl-5-fluoro-6-methylpyridin-2-yl)-5-(3,4-dimethylpiperazin-1-yl)-N4-(2-methyl-2H-1,2,3-triazol-4-yl)pyrimidine-2,4-diamine], the 50% inhibitory concentration (IC50) was determined as 17 nM in data set [1] (setting [9]) and 37 nM in data set [2] (setting [10]).
Taken in the same sequence, the figures for `Cc1nc(Nc2ncc(N3CCN(C)[C@H](C)C3)c(Nc3cn(C)nn3)n2)cc(C2CC2)c1F` [Example 14, (R)—N2-(4-cyclopropyl-5-fluoro-6-methylpyridin-2-yl)-5-(3,4-dimethylpiperazin-1-yl)-N4-(1-methyl-1H-1,2,3-triazol-4-yl)pyrimidine-2,4-diamine] were 33 nM and 69 nM.
Take `CCc1cc(Nc2ncc(N3CCNC(C)C3)c(Nc3cc(C)n(C)n3)n2)nc(C)c1F` (stereo in doubt) [Example 8, (R)—N4-(1,5-dimethyl-1H-pyrazol-3-yl)-N2-(4-ethyl-5-fluoro-6-methylpyridin-2-yl)-5-(3-methylpiperazin-1-yl)pyrimidine-2,4-diamine dihydrochloride]: the IC50 in data set [1] (setting [7]) turned out to be 35 nM; in data set [2] (setting [8]), 44 nM.
Take `Cc1nc(Nc2ncc(N3CCN[C@H](C)C3)c(Nc3cc(C)n(C)n3)n2)cc(C2CC2)c1F` [Example 2, (R)—N2-(4-cyclopropyl-5-fluoro-6-methylpyridin-2-yl)-N4-(1,5-dimethyl-1H-pyrazol-3-yl)-5-(3-methylpiperazin-1-yl)pyrimidine-2,4-diamine dihydrochloride]: the IC50 in data set [1] (setting [7]) turned out to be 14 nM; in data set [3], 63.6 nM; in the data set on P. vivax field isolates, 81 nM; in data set [2] (setting [8]) it was 19 nM. The “Presence of proposed metabolite (N-demethylation) in liver microsomes or hepatocytes” value in data set [4], in data set [5] and in data set [6] was “✓” in each case.
In the case of `CCn1nc(Nc2nc(Nc3cc(C4CC4)c(F)c(C)n3)ncc2N2CCN[C@H](C)C2)cc1C` [Example 3, (R)—N2-(4-cyclopropyl-5-fluoro-6-methylpyridin-2-yl)-N4-(1-ethyl-5-methyl-1H-pyrazol-3-yl)-5-(3-methylpiperazin-1-yl)pyrimidine-2,4-diamine dihydrochloride], the IC50 in data set [1] (setting [7]) was 17 nM; in data set [2] (setting [8]), 14 nM.
On the same counts, the results for `Cc1nc(Nc2ncc(N3CCN[C@H](C)C3)c(Nc3cn(C)nn3)n2)cc(C2CC2)c1Cl` [Example 11, (R)—N2-(5-chloro-4-cyclopropyl-6-methylpyridin-2-yl)-N4-(1-methyl-1H-1,2,3-triazol-4-yl)-5-(3-methylpiperazin-1-yl)pyrimidine-2,4-diamine dihydrochloride] are 30 nM and 50 nM.
As to `Cc1nc(Nc2ncc(N3CCN(C)CC3)c(Nc3cn(C)nn3)n2)cc(C2CC2)c1F` [Example 1, N2-(4-cyclopropyl-5-fluoro-6-methylpyridin-2-yl)-N4-(1-methyl-1H-1,2,3-triazol-4-yl)-5-(4-methylpiperazin-1-yl)pyrimidine-2,4-diamine], the IC50 turned out to be 15 nM in data set [1] (setting [9]) and 24 nM in data set [2] (setting [10]).
Taken in the same sequence, the figures for `CCc1nc(N)nc(N)c1-c1ccc(Cl)cc1` [Pyrimethamine, pyrimethamine, reference compound] were 64 nM and 7900 nM.
Take `Cc1nc(Nc2ncc(N3CCN[C@H](C)C3)c(Nc3cc(C)n(C)n3)n2)cc(C2CC2)c1C#N` [Example 6, (R)-4-cyclopropyl-6-((4-((1,5-dimethyl-1H-pyrazol-3-yl)amino)-5-(3-methylpiperazin-1-yl)pyrimidin-2-yl)amino)-2-methylnicotinonitrile dihydrochloride]: the figures for the IC50 in data set [1] (setting [7]) and in data set [2] (setting [8]) were 31 nM and 45 nM, respectively.
On to `Clc1ccc2c(N3CCN(CCCN4CCN(c5ccnc6cc(Cl)ccc56)CC4)CC3)ccnc2c1` [Piperaquine, piperaquine], for which the IC50 in data set [3] stood at 16.9 nM; with P. vivax field isolates it was 5.9 nM.
As for “(R)—N2-(5-Fluoro-4-cyclopropyl-6-methylpyridin-2-yl)-N4-(2-methyl-2H-1,2,3-triazol-4-yl)-5-(3-methylpiperazin-1-yl)pyrimidine-2,4-diamine dihydochloride [Example 12]”, the IC50 amounted to 39 nM in data set [1] (NF54 strain, chloroquine sensitive, read-out: Pf IC50—NF54) and 82 nM in data set [2] (K1 strain, chloroquine-resistant, read-out: Pf IC50—K1).
Turning to `Cc1nc(Nc2ncc(N3CCN[C@H](C)C3)c(Nc3cc(C)n(C)n3)n2)cc(C2CC2)c1Cl` [Example 5, (R)—N2-(5-chloro-4-cyclopropyl-6-methylpyridin-2-yl)-N4-(1,5-dimethyl-1H-pyrazol-3-yl)-5-(3-methylpiperazin-1-yl)pyrimidine-2,4-diamine dihydrochloride], the IC50 in data set [1] (setting [7]) stood at 23 nM; in data set [2] (setting [8]) it was 48 nM.
Consider `CCN(CC)CCCC(C)Nc1ccnc2cc(Cl)ccc12` (stereo not drawn) [Chloroquine, chloroquine, reference compound], for which the IC50 was 11 nM in data set [1] (setting [7]), 60.8 nM in data set [3], 40.2 nM in the data set on P. vivax field isolates and above 150 nM in data set [2] (setting [8]).

Source of the values: patent US9957253B2, “Triaminopyrimidine compounds useful for preventing or treating malaria” (MMV MEDICINES FOR MALARIA VENTURE, priority 2014, dated 2018).
